Key:
[1] = One-step bleaching of stained bovine enamel with targeted perhydrolase (Example 13); conditions: 0.1% PAA
Description: (§1) Whiteness index (WI) is defined by the International Commission on Illumination (CIE) and described in ASTM method E313-05 and calculated for D65/10 incident light as: WI=Y+800*(0.3138−x)+1700*(0.3310−y) Where Y, x, and y are the luminance factor and the chromaticity coordinates respectively of the enamel substrate.
(§2) Bovine enamel incisors were prepared as indicated in Example 1. Stained bovine enamel blocks were hydrated in water at least 1 h prior to use to stabilize the color of the substrate. The color for each enamel block was measured after hydration prior to the start of the experiment. Two enamel samples were treated for each solution type. The solutions used were a buffer only control, 0.1% Peracetic Acid, a perhydrolase composition including 0.52 μM EZ-7 (C277S with enamel binding domain; SEQ ID NO: 429), 100 mM triacetin and 32.6 mM H2O2. All solutions were prepared in 100 mM sodium phosphate buffer, pH 7.2. All solutions were freshly prepared for each treatment point. The enzyme-triacetin-H2O2 combination was mixed immediately before enamel exposure. After each treatment step, each enamel block was rinsed with water and a color measurement was obtained. A treatment time of 30 min was repeated 4 times for each set of enamel substrates. The concentration of peracetic acid in solution after a 30 min treatment was evaluated by colorimetric detection of ABTS oxidation.

[2] = Peracetic acid in treatment solution by ABTS (Example 13); assay type: biochemical; conditions: after 30 min treatment
Description: (§3) Determination of the peracetic acid (PAA) concentration in the reaction mixtures by a colorimetric method was performed according to the method described by Dinu et. al. (supra). A reagent solution of 1 mM 2,2′-azino-bis(3-ethylbenzothiazoline)-6-sulfonate (ABTS), 50 μM potassium iodide in 125 mM potassium citrate buffer at pH 5.0 was prepared. […] The solution was analyzed for absorbance at 405 nm using a Microplate reader. A comparison of relative amounts of peracetic acid in solution was determined by comparing absorbance values directly.
as §2

[3] = One-step bleaching of stained bovine enamel with perhydrolase system (Example 12)
Text: as §1
(§4) The purpose of this example is to show the tooth bleaching effect of enzymatic generated peracetic acid in a one-step application and compare to the performance achieved with chemically derived peracetic acid. Two methods were developed to use a perhydrolytic enzyme (CE-7 perhydrolase) system to achieve the target level of tooth bleaching. The first method (referred to herein as the “one-step approach”) comprises combining different amounts of at least one CE-7 perhydrolase with triacetin (an example of a suitable ester substrate) and hydrogen peroxide to generate peracetic acid using model stained enamel substrates. Bovine enamel incisors were prepared as indicated in Example 1. Stained bovine enamel blocks were hydrated in water at least 1 hr prior to use to stabilize the color of the substrate. The color for each enamel block was measured after hydration prior to the start of the experiment. Three enamel samples were treated for each solution type. The solutions used were a buffer only control, 2.5% H2O2, 1% peracetic acid, a perhydrolase composition including 10 μM EZ-1 (C277S; SEQ ID NO: 424), 100 mM triacetin and 250 mM H2O2 and a no enzyme control of 100 mM triacetin and 250 mM H2O2. All solutions were prepared in 500 mM sodium phosphate buffer, pH 7.2. The high buffer strength was necessary to maintain the 1% peracetic acid solution at neutral pH. All solutions were freshly prepared for each treatment point. The enzyme-triacetin-H2O2 combination and triacetin-H2O2 combination was mixed immediately before enamel exposure. After each treatment step, each enamel block was rinsed with water and a color measurement was obtained. A total treatment time of 61 min was used with durations of exposure of 1 min, 5 min, 10 min, 15 min and 30 min. The concentration of peracetic acid in solution after the 1 min, 10 min and 30 min treatments was evaluated by colorimetric detection of ABTS oxidation.

[4] = Peracetic acid vs hydrogen peroxide bleaching of coffee/tea stained bovine enamel (whiteness index); conditions: for ΔWI: 0 to 61 min; for Whiteness Index 0 min: before exposure
Text: This example describes the use of peracetic acid to achieve a bleaching effect on model stained enamel surfaces. Bovine enamel incisors were obtained from SE Dental (Baton Rouge, La.). Teeth were sectioned and cut into enamel slabs approximately 7 mm on each side using a DREMEL® rotary saw (Robert Bosch Power Tool Corporation; Chicago, Ill.) with a diamond blade. The enamel slabs were cleaned and lightly polished to remove surface debris. The enamel was pretreated with a mixture of coffee and tea for 1-5 days in order to stain to a color similar to human stained teeth.
Each enamel block was hydrated in water for at least 1 hr prior to use. Color measurements for the substrate were obtained prior to exposure to test solutions. Solutions of peracetic acid were prepared from a 32% stock in 500 mM sodium phosphate buffer, pH 7.2. A solution of 2.5% H2O2 was also prepared in the same buffer. Multiple enamel blocks were exposed to each solution for 1 min followed by additional exposures of 5 min, 10 min, 15 min and 30 min. For each treatment, a fresh solution of peracetic acid and hydrogen peroxide was prepared from the stock solutions. After each treatment the enamel blocks were rinsed with water and measured with a Konica-Minolta 2600d spectrophotometer.
as §1

[5] = Peracetic acid in treatment solution by ABTS absorbance (Example 12); assay type: biochemical; conditions: 1:100 dilution into ABTS reagent
Text: as §4, §3

Compound: CC(=O)OO [PAA, peracetic acid]
- Whiteness Index 30 min [1]: −101.9
- Whiteness Index 60 min [1]: −91.9
- Whiteness Index 90 min [1]: −80.2
- Whiteness Index 120 min [1]: −70.8
- ΔWI ([1]; 0 to 120 min): 55.0
- Whiteness Index 0 min ([1]; before treatment, 100 mM sodium phosphate pH 7.2, average of two substrates): −125.8
- PAA (ppm) [2]: 920 ppm
- Absorbance 405 nm Tooth2 ([2]; 1:10 dilution into ABTS reagent): 1.043
- Absorbance 405 nm Tooth1 ([2]; 1:10 dilution into ABTS reagent, 0.1% PAA or 0.52 μM EZ-7/100 mM triacetin/32.6 mM H2O2): 1.103
- Whiteness Index 0 min ([3]; before treatment, 2.5% H2O2, 100 mM triacetin/250 mM H2O2, 1% PAA, 10 μM EZ-1/100 mM triacetin/250 mM H2O2, pH 7.2): −145.7
- ΔWI ([3]; one-step, 0 to 61 min): 86.3
- Whiteness Index 1 min ([3]; one-step, cumulative treatment 1 min): −119.6
- Whiteness Index 6 min ([3]; one-step, cumulative treatment 6 min): −73.4
- Whiteness Index 16 min ([3]; one-step, cumulative treatment 16 min): −62.9
- Whiteness Index 31 min ([3]; one-step, cumulative treatment 31 min): −59.0
- Whiteness Index 61 min ([3]; one-step, cumulative treatment 61 min): −59.4
- ΔWI ([4]; Table 1, 2.5% H2O2 or 0.5% PAA): 90.8
- Whiteness Index 1 min ([4]; Table 1, 2.5% H2O2 or 0.5% PAA, cumulative exposure 1 min): −111.6
- Whiteness Index 6 min ([4]; Table 1, 2.5% H2O2 or 0.5% PAA, cumulative exposure 6 min): −80.7
- Whiteness Index 16 min ([4]; Table 1, 2.5% H2O2 or 0.5% PAA, cumulative exposure 16 min): −56.5
- Whiteness Index 31 min ([4]; Table 1, 2.5% H2O2 or 0.5% PAA, cumulative exposure 31 min): −44.5
- Whiteness Index 61 min ([4]; Table 1, 2.5% H2O2 or 0.5% PAA, cumulative exposure 61 min): −38.3
- Whiteness Index 0 min ([4]; Table 1, 2.5% H2O2 or 0.5% PAA, 500 mM sodium phosphate pH 7.2): −129.1
- Whiteness Index 1 min ([4]; Table 2, 0.05% PAA): −97.1
- Whiteness Index 6 min ([4]; Table 2, 0.05% PAA): −93.1
- Whiteness Index 16 min ([4]; Table 2, 0.05% PAA): −70.1
- Whiteness Index 31 min ([4]; Table 2, 0.05% PAA): −59.0
- Whiteness Index 61 min ([4]; Table 2, 0.05% PAA): −34.7
- ΔWI ([4]; Table 2, 0.05% PAA): 68.7
- Whiteness Index 0 min ([4]; Table 2, 0.05% PAA): −103.4
- Whiteness Index 1 min ([4]; Table 2, 0.2% PAA): −85.5
- Whiteness Index 6 min ([4]; Table 2, 0.2% PAA): −67.0
- Whiteness Index 16 min ([4]; Table 2, 0.2% PAA): −47.5
- Whiteness Index 31 min ([4]; Table 2, 0.2% PAA): −31.7
- Whiteness Index 61 min ([4]; Table 2, 0.2% PAA): −16.2
- ΔWI ([4]; Table 2, 0.2% PAA): 74.4
- Whiteness Index 0 min ([4]; Table 2, 0.2% PAA): −90.6
- Whiteness Index 1 min ([4]; Table 2, 0.5% PAA): −86.6
- Whiteness Index 6 min ([4]; Table 2, 0.5% PAA): −64.1
- Whiteness Index 16 min ([4]; Table 2, 0.5% PAA): −46.4
- Whiteness Index 31 min ([4]; Table 2, 0.5% PAA): −32.7
- Whiteness Index 61 min ([4]; Table 2, 0.5% PAA): −24.7
- ΔWI ([4]; Table 2, 0.5% PAA): 72.8
- Whiteness Index 0 min ([4]; Table 2, 0.5% PAA): −97.5
- Whiteness Index 1 min ([4]; Table 2, 1% PAA): −89.3
- Whiteness Index 16 min ([4]; Table 2, 1% PAA): −36.0
- Whiteness Index 31 min ([4]; Table 2, 1% PAA): −20.6
- Whiteness Index 61 min ([4]; Table 2, 1% PAA): −5.1
- ΔWI ([4]; Table 2, 1% PAA): 97.7
- Whiteness Index 0 min ([4]; Table 2, 1% PAA): −102.8
- bleaching of stained enamel (in words) ([4]; compared to buffer and hydrogen peroxide controls): effective bleaching agent
- Absorbance 405 nm, 1 min ([5]; peracetic acid at end of 1 min treatment): 2.579
- Absorbance 405 nm, 10 min ([5]; peracetic acid at end of 10 min treatment): 1.863
- Absorbance 405 nm, 30 min ([5]; peracetic acid at end of 30 min treatment): 2.874

From US8663616B2, “Enzymatic peracid generation for use in oral care products” (E I du Pont de Nemours and Company, priority 2010, dated 2014)
